From ChEMBL document CHEMBL5726766, “Sulfonamide compounds as voltage-gated sodium channel modulators” (2019)

Key:
[1] = (§1) Membrane potential dye assay: HEK-293 cells overexpressing the channel of interest were seeded in a 96-well plate at a density of 30000 cells/well and incubated at 37° C./5% CO2 for 48 hr. The assay was carried out using the Red Membrane Potential Dye (Molecular Devices) following the manufacturer's instructions. Briefly, the cells were incubated with 1× red membrane potential dye for 1.5 hour. The cells were then treated with various concentrations of the test compounds for 15-20 min followed by depolarization with 10-30 μM Veratridine. The fluorescence was read following excitation at 510-545 nm and emission at 565-625 nm in FLIPR. The “max-min” fluorescence values were used to calculate the % inhibition.; settings: HEK293
[2] = as §1; settings: HEK293; remark: listed apart in the source

SMILES | IC50 [1] [nM] | IC50 [2] [nM]
O=S(=O)(Nc1cccc(F)n1)c1ccc2c(c1)OCC[C@H]2c1ccc(C(F)(F)F)cc1O[C@H]1CCOC1 | 831 | > 10000
O=S(=O)(Nc1ncc(F)cn1)c1ccc2c(c1)OCC[C@@H]2c1ccc(C(F)(F)F)cc1-c1nccs1 | 11 | > 10000
O=S(=O)(Nc1ncccn1)c1ccc2c(c1)OCC[C@H]2c1ccc(C(F)(F)F)cc1O[C@H]1CCOC1 | 149 | > 10000
O=S(=O)(Nc1ncccn1)c1ccc2c(c1)OCC[C@H]2c1ccc(C(F)(F)F)cc1OCCCF | > 10000 | > 10000
Cc1nc(-c2cc(C(F)(F)F)ccc2[C@@H]2CCOc3cc(S(=O)(=O)Nc4ncc(F)cn4)ccc32)cs1 | 16 | > 10000
O=S(=O)(Nc1ncccn1)c1ccc2c(c1)OCC[C@@H]2c1ccc(C(F)(F)F)cc1O[C@@H]1CCOC1 | 1020 | > 10000
